Reference: patent US20090233948A1, “Inhibitors of nucleoside phosphorylases and nucleosidases” (priority 2005, published 2009)
Read-outs that look alike come from different tables or passages of the source.

Biological target: T1, human PNP (Homo sapiens, UniProt P00491)
T1 sequence (P00491 1-289): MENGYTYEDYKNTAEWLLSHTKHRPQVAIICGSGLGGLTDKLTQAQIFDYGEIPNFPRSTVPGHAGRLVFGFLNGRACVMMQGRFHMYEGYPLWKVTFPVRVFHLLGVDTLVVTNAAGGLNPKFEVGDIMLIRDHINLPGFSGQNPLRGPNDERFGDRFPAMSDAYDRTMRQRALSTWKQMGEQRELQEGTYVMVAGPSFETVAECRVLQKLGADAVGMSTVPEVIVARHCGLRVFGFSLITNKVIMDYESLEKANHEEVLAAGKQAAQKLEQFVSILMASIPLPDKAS
Experiment: Inhibition of human PNP: phosphorolysis of inosine, xanthine oxidase coupled spectrophotometric assay (slow-onset tight-binding analysis)
Assay type: biochemical
Settings: huPNP 1.4 nM, 1 mM inosine, 50 mM KHPO4 pH 7.4, 25° C.
Experimental: Initial (Ki) and equilibrium (Ki*) dissociation constants of DAD-Et-Immucillin-H were determined for human PNP.
Inhibitor dissociation constants for the phosphorolysis of inosine were based on initial and equilibrium reaction rate measurements with varied inhibitor concentrations (Miles, R. W., Tyler, P. C., Furneaux, R. H., Bagdassarian, C. K. and Schramm, V. L. (1998) One-third-the-sites transition state inhibitors for purine nucleoside phosphorylase, Biochemistry 37, 8615-8621; Morrison, J. F. and Walsh, C. T. (1988) The behaviour and significance of slow-binding enzyme inhibitors, Adv. Enzymol. Relat. Areas Mol. Biol. 61, 201-301). […] Hypoxanthine formed by phosphorolysis of inosine was oxidized to uric acid and monitored spectrophotometrically at 293 nm (extinction coefficient for uric acid ε293=12.9 mM^−1cm^−1). Enzyme concentration was adjusted to give absorbance changes not exceeding 1.0 during the time required to characterize initial and final slow-onset inhibition equilibria. […] Ki was determined by fitting the initial rates at different inhibitor concentration to the equation for competitive inhibition: νi=(kcat×S)/(Km(1+I/Ki)+S), where μi is initial reaction rate, kcat is the catalytic turnover number, Km is the Michaelis constant, Ki is the dissociation constant of enzyme-inhibitor complex (EI), I is inhibitor concentration and S is substrate concentration. […]

Ki (after slow onset equilibrium, read-out: Equilibrium dissociation constant (Ki*)): 0.46 ± 0.05 nM
Ki (initial inhibitor binding step, read-out: Initial dissociation constant (Ki)): 1.6 ± 0.3 nM
Compound: O=c1[nH]cnc2c(CCN3C[C@@H](CO)[C@H](O)C3)c[nH]c12 [Compound 1, (3S,4S)-1-[2-(9-Deaza-hypoxanthin-9-yl)ethyl]-3-hydroxy-4-hydroxymethylpyrrolidine]
